Measured values taken from patent US20240101592A1, “COMPOSITIONS AND METHODS FOR TREATING CNS DISORDERS” (Sage Therapeutics, Inc., priority 2020, published 2024).

What follows are molecules tested against GABAA receptor ([35S]-TBPS binding, rat brain cortical membranes) (assay: Steroid inhibition of [35S]-TBPS binding). Conditions: 3 nM [35S]-TBPS, in the presence of 5 mM GABA, 90 min at room temp.
Experimental: Steroid Inhibition of TBPS Binding
[^35S]-t-Butylbicyclophosphorothionate (TBPS) binding assays using rat brain cortical membranes in the presence of 5 mM GABA has been described (Gee et al, J. Pharmacol. Exp. Ther. 1987, 241, 346-353; Hawkinson et al, Mol. Pharmacol. 1994, 46, 977-985; Lewin, A. H et al., Mol. Pharmacol. 1989, 35, 189-194).
Briefly, cortices are rapidly removed following decapitation of carbon dioxide-anesthetized Sprague-Dawley rats (200-250 g). The cortices are homogenized in 10 volumes of ice-cold 0.32 M sucrose using a glass/teflon homogenizer and centrifuged at 1500×g for 10 min at 4° C. The resultant supernatants are centrifuged at 10,000×g for 20 min at 4° C. to obtain the P2 pellets. The P2 pellets are resuspended in 200 mM NaCl/50 mM Na—K phosphate pH 7.4 buffer and centrifuged at 10,000×g for 10 min at 4° C. This washing procedure is repeated twice and the pellets are resuspended in 10 volumes of buffer. Aliquots ([…]) of the membrane suspensions are incubated with 3 nM [^35S]-TBPS and […] aliquots of test drug dissolved in dimethyl sulfoxide (DMSO) (final 0.5%) in the presence of 5 mM GABA. The incubation is brought to a final volume of 1.0 mL with buffer. Nonspecific binding is determined in the presence of […] and ranged from 15 to 25%. Following a 90 min incubation at room temp, the assays are terminated by filtration through glass fiber filters (Schleicher and Schuell No. 32) using a cell harvester (Brandel) and rinsed three times with ice-cold buffer. Filter bound radioactivity is measured by liquid scintillation spectrometry. Non-linear curve fitting of the overall data for each drug averaged for each concentration is done using Prism (GraphPad). […] The concentration of test compound producing 50% inhibition (IC50) of specific binding and the maximal extent of inhibition (Imax) are determined for the individual experiments with the same model used for the overall data and then the means±SEM.s of the individual experiments are calculated.
Various compounds are or can be screened to determine their potential as modulators of [^35S]-TBPS binding in vitro. These assays are or can be performed in accordance with the above.

Compound | IC50
Cc1nnn(C[C@@H]2C[C@H]2[C@H]2CC[C@H]3[C@@H]4CC[C@@H]5C[C@](C)(O)CC[C@@H]5[C@H]4CC[C@]23C)n1 [Compound No. 28, (3R,5R,8R,9R,10S,13S,14S,17R)-3,13-dimethyl-17-((1S,2R)-2-((5-methyl-2H-tetrazol-2-yl)methyl)cyclopropyl)hexadecahydro-1H-cyclopenta[a]phenanthren-3-ol] | < 0.1 µM
C[C@@]1(O)CC[C@H]2[C@H](CC[C@@H]3[C@@H]2CC[C@@]2(C)[C@H]3C[C@H]3C[C@H]3[C@@H]2[C@@](C)(O)Cn2cc(C#N)cn2)C1 [Compound No. 3] | < 0.1 µM
Cc1nnnn1C[C@@H]1C[C@H]1[C@H]1CC[C@H]2[C@@H]3CC[C@@H]4C[C@](C)(O)CC[C@@H]4[C@H]3CC[C@]12C [Compound No. 27, (3R,5R,8R,9R,10S,13S,14S,17R)-3,13-dimethyl-17-((1S,2R)-2-((5-methyl-1H-tetrazol-1-yl)methyl)cyclopropyl)hexadecahydro-1H-cyclopenta[a]phenanthren-3-ol] | 0.1 to 1 µM
COC[C@@]1(O)CC[C@H]2[C@@H](CC[C@@H]3[C@@H]2CC[C@@]2(C)[C@H]3[C@@H]3C[C@@H]3[C@@H]2C(C)=O)C1 [Compound No. 16, 1-((2R,4aS,4bR,6aS,7S,7aS,8aR,8bR,8cR,10aS)-2-hydroxy-2-(methoxymethyl)-6a-methyloctadecahydrocyclopropa[4,5]cyclopenta[1,2-a]phenanthren-7-yl)ethanone] | < 0.1 µM
C[C@@]1(O)CC[C@H]2[C@H](CC[C@@H]3[C@@H]2CC[C@]2(C)[C@@H]([C@H]4C[C@@H]4Cn4cc(C#N)cn4)CC[C@@H]32)C1 [Compound No. 24, 1-(((1S,2R)-2-((3R,5R,8R,9R,10S,13S,14S,17R)-3-hydroxy-3,13-dimethylhexadecahydro-1H-cyclopenta[a]phenanthren-17-yl)cyclopropyl)methyl)-1H-pyrazole-4-carbonitrile] | < 0.1 µM
